We go through 8 compounds from ChEMBL document CHEMBL1138988, “Assessment of in vitro and in vivo activities in the National Cancer Institute's anticancer screen with respect to chemical structure, target specificity, and mechanism of action” (2006).

The subject of assay [1] is Panel NCI-60 (60 carcinoma cell lines). The experiment in a line: Antiproliferative activity against NCI60 cell line. Type of assay: functional, Homo sapiens.
In another assay the test system is Mus musculus. The experiment in a line: Activity against NCI60 cell line xenograft in nude mouse by HF assay. Type of assay: functional.

The structures appear in SMILES notation. Activity calls are given as the source filed them. The calls are words filed in the database; no cut-off is given here.

Broadly, the pGI50 is the negative decadic logarithm of the GI50, by convention in mol/L. Read a low pGI50 as a high GI50. In turn, `O=C(OC12CC3CC(CC(C3)C1)C2)c1ccc(NCc2cc(O)ccc2O)cc1` returned a pGI50 in assay [1] of 5.44. The same compound had an Activity with Mus musculus of 10.83.
In assay [1], `COc1cccc2c1C(=O)c1c(O)c3c(c(O)c1C2=O)CC(O)(C(=O)CO)CC3OC1CC(N)C(O)C(C)O1` (stereo unspecified) gave a pGI50 of 6.53. Also, the Activity in the assay with Mus musculus worked out at 20.67.
In the same order, the values of `CCC1(O)C(=O)OCc2c1cc1n(c2=O)Cc2cc3ccccc3nc2-1` (stereo unspecified) are 5.99 and 13.67.
Regarding `N/C(S)=N/N=C/c1ccc(O)cn1`, the pGI50 in assay [1] is given as 5.92. Moreover, the Activity with Mus musculus is recorded as 15.
For `CCCCCCC(O)C(O)CCC(O)C1CCC(CCCCC(O)CC2=CC(C)OC2=O)O1` (stereo unspecified) [ACETOGENINS] the same measures were 5.53 and “inactive”.
For `COc1cc2c(c(OC)c1OC)-c1ccc(OC)c(=O)cc1[C@@H](NC(C)=O)CC2` [COLCHICINE] the same measures were 5.8 and 19.6.
In the same order, the values of `Nc1ccn([C@@H]2O[C@H](CO)[C@@H](O)[C@@H]2O)c(=O)n1` [CYTARABINE] are 5 and 11.
In the case of `CN(Cc1cnc2nc(N)nc(N)c2n1)c1ccc(C(=O)N[C@@H](CCC(=O)O)C(=O)O)cc1` [METHOTREXATE], the pGI50 in assay [1] was found to be 5.55. In the assay on Mus musculus, the Activity was 16.8.
